Results as given in PubChem BioAssay (NCI).
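These data come from cells grown in 96-well plates and exposed to compound for 48 hours at five concentrations. Definition used: TGI = concentration required for complete inhibition of growth.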

Legend:
Assay in all cases: NCI-60 cell line screen, 48 h
[1] = system: K-562 leukemia
[2] = system: SK-OV-3 ovarian
[3] = system: HL-60(TB) leukemia
[4] = system: HCT-116 colon
[5] = system: DMS 114 small cell lung
[6] = system: SR leukemia
[7] = system: M19-MEL melanoma
[8] = system: A498 renal
[9] = system: SK-MEL-5 melanoma
[10] = system: LXFL 529 NSCLC
[11] = system: U251 CNS
[12] = system: CAKI-1 renal
[13] = system: SF-539 CNS
[14] = system: MALME-3M melanoma
[15] = system: 786-0 renal
[16] = system: UACC-62 melanoma
[17] = system: OVCAR-3 ovarian
[18] = system: LOX IMVI melanoma
[19] = system: M14 melanoma
[20] = system: NCI-H522 lung
[21] = system: SNB-19 CNS
[22] = system: UO-31 renal
[23] = system: EKVX NSCLC
[24] = system: SK-MEL-2 melanoma
[25] = system: RPMI-8226 leukemia
[26] = system: COLO 205 colon
[27] = system: OVCAR-8 ovarian
[28] = system: DMS 273 small cell lung
[29] = system: HCC-2998 colon
[30] = system: TK-10 renal
[31] = system: SW-620 colon
[32] = system: HOP-18 NSCLC
[33] = system: SF-295 CNS
[34] = system: NCI-H226 lung
[35] = system: SN12C renal
[36] = system: SNB-75 CNS
[37] = system: HCT-15 colon
[38] = system: HOP-92 NSCLC
[39] = system: SNB-78 CNS
[40] = system: ACHN renal
[41] = system: NCI-H460 lung
[42] = system: SK-MEL-28 melanoma
[43] = system: HT29 colon
[44] = system: OVCAR-4 ovarian
[45] = system: OVCAR-5 ovarian
[46] = system: RXF-631 renal
[47] = system: CCRF-CEM leukemia
[48] = system: KM12 colon
[49] = system: HOP-62 NSCLC
[50] = system: A549 NSCLC
[51] = system: IGROV1 ovarian
[52] = system: NCI-H23 lung
[53] = system: UACC-257 melanoma
[54] = system: DLD-1 colon
[55] = system: MOLT-4 leukemia
[56] = system: RXF 393 renal
[57] = system: KM20L2 colon
[58] = system: XF 498 CNS
[59] = system: SF-268 CNS

Measured: TGI

O=c1[nH]ccc2c1ccn2C1CC(O)C(CO)O1 (stereo unspecified)
not listed: [56] | [57] | [58] | [59]
> 100 µM: all other assays above

O=C(CC1(O)C(=O)Nc2ccccc21)c1ccc2ccccc2c1 (stereo unspecified)
not listed: [6] | [11] | [32] | [47] | [48]
> 100 µM: all other assays above

O=C(NC1C(O)C(O)C(CO)OC1n1cc(F)c(=O)[nH]c1=O)OCc1ccccc1 (stereo unspecified)
not listed: [1] | [7] | [13] | [15] | [16] | [17] | [22] | [23] | [27] | [51] | [55] | [58]
> 100 µM: all other assays above
